Experimental data published in patent US20070208011A1, “Supersaturated Benzodiazepine Solutions and Their Delivery” (priority 2005, published 2007).
Read-outs that look alike come from different tables or passages of the source.

Columns and labels:
[1] = cited from earlier work
[2] = clinical; details: human, plasma, inhaled or intranasal, 5 mg
[3] = Nasal administration of diazepam and midazolam preparations in two healthy volunteers; details: for Nasal Discomfort / Nasal Discomfort (maximum): subject self-rating, IN 5 mg dose, n = 2
Description: Approximately 0.5 ml (2.5 mg) was dripped into each nostril over a period of 30 seconds.

[4] = in vivo; cited from earlier work
[5] = cited from earlier work; remark: listed apart in the source
[6] = tested on: MDCKII-WT cell monolayer
[7] = tested on: MDCKII-WT cell monolayer; details: 0-50% GF with assay buffer, over 30 min
Description: (§1) Maden Darby Canine Kidney II wild type (MDCKII-WT) cells were seeded at 43,000 cells/cm^2 on six-well polyester membrane inserts (Transwell®) with a pore size of 0.4 μm. Cells were maintained in Dulbecco's modified Eagle's medium supplemented with 10% fetal bovine serum and 1% penicillin and streptomycin at 37° C. in a humidified incubator with 5% CO2. Media were changed every other day, and cell monolayers were cultured for 4 days before use.

[8] = tested on: MDCKII-WT cell monolayer; details: GF 0 to 50 vol % in upstream vehicle
[9] = tested on: MDCKII-WT cells
Description: as §1
Viability of MDCKII-WT cells was measured by incubating the cells in suspension for 30, 60, and 120 min in various GF/buffer compositions at 37° C. Trypan blue dye was then added into the cell suspension, and incubated for 10 min. A sample was drawn from the suspension and spread on a hemocytometer, and counts of live (transparent) and dead (blue) cells were made.

[10] = Comparison of intranasal with published rectal diazepam concentration-time course
[11] = DZP permeation through blank filter; details: S from 1 to 6, 30/70 GF/AB vehicle, blank filters
[12] = rectal, published data (Cloyd et al, Epilepsia 1998); cited from earlier work
[13] = Diffusion studies through silicone membranes (Franz diffusion cell); details: for Steady State Flux / Time Lag / Transference: 75 μm silicone membrane
[14] = tested on: patients with SE; details: intravenous, given within 30 minutes of the onset of SE; cited from earlier work
[15] = Lipid-solubility (octanol/water ratio) of benzodiazepines; details: from Table 1
[16] = human, blood, other: intranasal, 5 mg
[17] = buccal, 5 mg commercial parenteral MDZ, 8 healthy volunteers

## Cc1ncc2n1-c1ccc(Cl)cc1C(c1ccccc1F)=NC2 [MDZ, midazolam]
[1]; at pH = 3
  Lipid-solubility (Octanol/Water Ratio): at pH = 3: 34
[1]; at pH = 7.5
  Lipid-solubility (Octanol/Water Ratio): at pH = 7.5: 475
[2]
  Cmax: 64.6 ng/mL
  bioavailability: 97.9%
[3]; IN commercial formulations: DZP solvents 40% propylene glycol and 10% ethanol, MDZ pH=3
  nasal discomfort (in words): significant discomfort
[3]; [16]
  Tmax: 20 min
  bioavailability: 67.5%
[3]
  Nasal Discomfort: 1.0
  Nasal Discomfort (maximum): 6.0
[4]
  Elimination T½: 30 to 240 min
  First-pass Effect: High
[5]; IM injection
  time to pharmacological effect comparable to IV diazepam: ≤ 15 minutes
[5]; IM
  time to peak serum concentrations: 20 to 30 min
[5]; [17]
  average bioavailability: 75%
  time to peak serum concentrations: 15 to 90 min
[5]; rectal
  bioavailability: 15-30 % of a dose

## tetrahydrofurfuryl alcohol polyethyleneglycol ether [GF]
[6]; GF/AB cosolvent mixtures, 0 to 50 vol % GF
  effect of GF content on permeability of mannitol: permeability of mannitol increases
[6]; all GF/AB cosolvent systems (0-50 vol % GF), t=30 min
  percentage mass transported of mannitol: below 5%
[7]
  TEER values: > 100 Ω·cm2
[8]
  effect of GF content on transference of DZP through MDCK cell monolayer: transference increased with increasing GF content
[9]; 30 min treatment, GF up to 50 vol %
  viable cells: more than 90%
[9]; 1 h exposure, GF compositions above 30%
  cell viability: marked decease in cell viability
[9]; 2 h exposure, GF compositions equal to or more than 20%
  lethality: 100%

## CN1C(=O)CN=C(c2ccccc2)c2cc(Cl)ccc21 [DZP, diazepam]
[10]; nasal, 5 mg
  time to maximum concentration: 28 min
[10]; rectally, published data adjusted from 15 mg to 5 mg assuming linear pharmacokinetics
  peak concentration: 128 ng/mL
[11]
  steady state flux as a function of degree of saturation S: increased linearly with increasing degree of saturation
[3]
  Nasal Discomfort: 1.5
  Nasal Discomfort (maximum): 6.8
[12]
  time to maximum concentration: 45 min
[13]; S=0.5-6.25, 50:50 GF/water, silicone membrane
  steady state flux as a function of degree of saturation S: increased nearly linearly with increasing degree of saturation
[13]; S=1, 30% GF
  Steady State Flux: 0.823 ± 0.030 μg/(cm^2 · min)
  Time Lag: 1.876 ± 0.165 min
  Transference: 0.823 ± 0.030 μg/(cm^2 · min)
[13]; S=1, 40% GF
  Steady State Flux: 0.826 ± 0.019 μg/(cm^2 · min)
  Time Lag: 1.793 ± 0.020 min
  Transference: 0.826 ± 0.019 μg/(cm^2 · min)
[13]; S=1, 50% GF
  Steady State Flux: 0.824 ± 0.011 μg/(cm^2 · min)
  Time Lag: 1.842 ± 0.119 min
  Transference: 0.824 ± 0.011 μg/(cm^2 · min)
[13]; S=3, 30% GF
  Steady State Flux: 2.309 ± 0.070 μg/(cm^2 · min)
  Time Lag: 1.806 ± 0.135 min
  Transference: 0.770 ± 0.023 μg/(cm^2 · min)
[13]; S=3, 40% GF
  Steady State Flux: 2.310 ± 0.055 μg/(cm^2 · min)
  Time Lag: 1.787 ± 0.091 min
  Transference: 0.770 ± 0.018 μg/(cm^2 · min)
[13]; S=3, 50% GF
  Steady State Flux: 2.321 ± 0.095 μg/(cm^2 · min)
  Time Lag: 1.755 ± 0.134 min
  Transference: 0.774 ± 0.032 μg/(cm^2 · min)
[5]; rectal, adults
  time to peak concentrations: 15 to 45 min
[5]; rectal, children
  time to peak concentrations: 5 to 10 min

## O=C1Nc2ccc(Cl)cc2C(c2ccccc2Cl)=NC1O (stereo not shown) [LZP, lorazepam]
[14]
  effective in patients: 60-80%
[4]
  Elimination T½: 480 to 1500 min
  First-pass Effect: Low
[15]
  lipid-solubility relative to DZP and MDZ: ⅕
[5]; rectal
  time of peak plasma concentrations: 75 min
